Assay results taken from US20050069947A1, “Antibodies specific for nanotubes and related methods and compositions” (priority 2001, published 2005).

Tests used:
[1] = Gamma-camera imaging biodistribution study; format: in vivo, Sprague-Dawley rats
Protocol: The biodistribution in mice of hydroxylated lanthanide-C82 encapsulates is under current investigation. The results presented here are regarded as preliminary as the sample is still small. Studies continue under a NIH Phase I grant. The neutron irradiated samples, along with a […] control sample, were used to perform a γ-camera imaging study on four 300 g Sprague-Dawley rats. Two rats were injected intraperitoneally (IP) with 54 and 18 μCi of ^166Ho activity from samples containing irradiated Ho-metallofullerois. Two control studies were performed by […] of approximately 660 μCi of ^166Ho^3+ in a 1% sodium citrate buffer. The anesthetized rats were scanned side-by-side on a single stage with a γ-camera starting 1 hour after injection and periodically thereafter over the ensuing 48 hours.

[2] = tested on: anti-fullerene antibodies; assay: ELISA inhibition of antibody binding to 1-RSA; parameters: species or system mice; conditions: for reactivity with polyclonal antibodies raised to C60: method not stated at the place; for inhibition of antibody binding to 1-RSA (ELISA inhibition): serum of mice immunized with 1-TG, plates coated with 1-RSA
Protocol: After a total of three immunizations at 3-week intervals, confirmation of an immune response was determined by direct ELISA in which polystyrene plates (Corning) were coated with the 1-RSA conjugate (0.5 mg/ml in 0.1 M NaHCO3, pH 9), and binding of preimmune and immune sera were determined by standard procedures. Development was with horseradish peroxidase-labeled goat anti-mouse IgG (Sigma), which tested negative for crossreaction with an IgM preparation. The substrate used was o-phenylenediamine.
(§1) Specificity of the response was determined by two procedures: double diffusion in agar (22) and competitive inhibition, as determined by ELISA using RSA and BSA conjugates of the fullerenes, as well as the oligo lysine derivatives. The fullerenes themselves were not soluble enough in aqueous solutions.
The adenosine conjugate had been synthesized using the same strategy used for the fullerenes, i.e., linkage to the epsilon amino groups of the lysines via an N-hydroxysuccinimide ester derivative.
After a total of 3 immunizations at 3 week intervals, confirmation of an immune response was determined by direct ELISA in which polystyrene plates (Corning) were coated with 1-RSA conjugate (0.5 mg/ml in O.1 N NaHCO3, pH 9) and binding of preimmune and immune sera determined by standard procedures. Development was with horseradish peroxide-labeled goat anti-mouse IgG (Sigma, St. Louis, MO) which tested negative for cross reaction with an IgM preparation. The substrate used was o-phenylenediamine.
(§2) Specificity of the response was determined by two procedures: double diffusion in agar and competitive inhibition, as determined by ELISA using RSA and BSA conjugates of the fullerenes, as well as the oligo lysine derivatives. The fullerenes themselves were not soluble enough in aqueous solutions.

[3] = acute and subchronic topical applications; cited from earlier work
[4] = tested on: anti-fullerene antibodies; assay: Double diffusion in agar; format: binding, mice
Protocol: as §1, §2

[166Ho+3] [^166Ho^3−]
urinary clearance ([1]; IP, commencing as soon as 1 hour post-injection): rapid | ^166Ho activity excreted ([1]; after 24 hours): essentially all

c12c3c4c5c1c1c6c7c2c2c8c3c3c9c4c4c%10c5c5c1c1c6c6c%11c%12c%13c%14c%15c%16c%17c%14c%14c%18c%13c%11c1c1c5c%10c5c(c%14c%10c%17c%11c%13c%16c%14c%16c%15c%12c%12c%16c(c2c7c%126)c2c8c3c(c%13c%142)c2c9c4c5c%10c%112)c%181 [Compound C70]
reactivity with polyclonal antibodies raised to C60 [2]: non-reactive | reactivity with polyclonal antibodies raised to C60 ([2]; listed as C70 fullerene): crossreacted | carcinogenic effects [3]: lack of carcinogenic effects

RSA: rabbit serum albumin, control
inhibition of antibody binding to 1-RSA (ELISA inhibition) [2]: No inhibition

TG: unsubstituted bovine thyroglobulin, carrier protein
inhibition of antibody binding to 1-RSA (ELISA inhibition) [2]: No inhibition | precipitation in double diffusion in agar ([4]; TG solution diluted 5-fold): a line of precipitation was seen | precipitation in double diffusion in agar ([4]; serum of mice immunized with 1-TG): no visible precipitate
